The source of these data is patent US20200361871A1 (Enterprise Therapeutics Ltd., priority 2018, published 2020).

What is called EC50 is the concentration giving half of the maximal effect.

For the test, the target named is human TMEM16A (TMEM16Aabc variant) (Homo sapiens, UniProt Q5XXA6, DEL476-501, form not given). Briefly: Automated whole-cell patch clamp (Qpatch) TMEM16A potentiator assay in FRT cells stably expressing human TMEM16A. Conditions: for % Potentiation @ 3.33 μM Avg: 3.33 μM solution of test compound, percentage increase of baseline TMEM16A current; for EC50: calculated EC50, Qpatch TMEM16A current at +70 mV. Type of test: cell-based. The text has this:
FIG. 1 is an example trace from a whole-cell patch clamp (Qpatch) TMEM16A potentiator assay as used in Biological Example 95 and illustrates the methodology used in the assay. In FIG. 1: S is Saline; V is Vehicle; #1 is Test Compound concentration #1; #2 is Test Compound concentration 2; #3 is Test Compound concentration 3; #4 is Test Compound concentration 4; #5 is Test Compound concentration #5; and R is Reference. The arrow in column V represents the baseline current, IBL. The arrows in each of the columns #1, #2, #3, #4, #5 and R represent I#[1], I#[2], I#[3], I#[4], I#[5] and I[Ref], which are the peak currents during the incubation periods for test compounds concentrations #1 to #5 and the Reference.
Fisher rat thyroid (FRT) cells stably expressing human TMEM16A (TMEM16Aabc variant; Dr Luis Galietta, Insituto Giannina, Italy) were cultured in T-75 flasks in Hams F-12 media with Coon's modification (Sigma) supplemented with 10% (v/v) foetal bovine serum, penicillin-streptomycin (10,000 U/mL/10000 μg/mL), G-418 (750 μg/mL), L-glutamine (2 mM) and sodium bicarbonate solution (7.5% v/v). At ˜90% confluence cells were harvested for experiments by detachment with a 2:1 (v/v) mixture of Detachin (BMS Biotechnology) and 0.25% (w/v) trypsin-EDTA. Cells were diluted to a density of 3.5-4.5×10^6 cells/mL with media consisting of CHO-S-SFM II (Sigma), 25 mM HEPES (Sigma) and Soy bean trypsin inhibitor (Sigma).
FRT-TMEM16A cells were whole-cell patch clamped using an automated planar patch clamp system (Qpatch, Sophion). Briefly, once high resistance (GOhm) seals were established between the cells and the planar recording array the patch was ruptured using suction pulses to establish the whole-cell recording configuration of the patch clamp technique. The assay employed the following solutions (all reagents Sigma): Intracellular solution (mM): N-methyl-D-glucamine 130, CaCl2 18.2, MgCl2 1, HEPES 10, EGTA 10, BAPTA 20, Mg-ATP 2, pH 7.25, 325 mOsm with sucrose.
Extracellular solution (mM): N-methyl-D-glucamine 130, CaCl2 2, MgCl2 1, HEPES 10, pH 7.3, 320 mOsm with sucrose.
The intracellular solution buffers intracellular calcium at levels required to give ˜20% activation of the maximal TMEM16A mediated current (EC20 for calcium ions). Cells were voltage clamped at a holding potential of −70 mV and a combined voltage step (to +70 mV)/ramp (−90 my to +90 mV) was applied at 0.05 Hz. After a period of current stabilisation test compounds, solubilised in 100% (v/v) DMSO and subsequently diluted into extracellular solution, were applied to generate a cumulative concentration response curve. Each concentration of test compound was incubated for 5 minutes before addition of the next concentration. After the final concentration was tested a supramaximal concentration of either a known active positive modulator or the TMEM16A inhibitor, CaCCinhA01 (Del La Fuente et al, 2008) was added to define the upper and lower limits of the assay.
Compound activity was quantified by measuring the increase in current upon compound addition and expressing this as a percentage increase of baseline TMEM16A current level. Percentage increases in current were determined for each concentration and the data plotted as a function of concentration using either the Qpatch software or Graphpad Prism v6.05 providing the concentration which gave 50% of its maximal effect (EC50) and maximum efficacy (percentage of baseline increase).
In FIG. 1, IBL equals baseline current, I[#1] equals the peak current during test compound concentration 1 incubation period and so on.
Peak TMEM16A current at +70 mV was plotted as a function of time over the assay period. Baseline current (IBL) was measured after a period of stabilisation. The increase in current for each compound addition was determined by taking the peak current during the incubation period and subtracting the current from the previous recording period and then expressing this as a percentage of the baseline current. […]

human TMEM16A (TMEM16Aabc variant), sequence (Q5XXA6 with tags, fused parts or gaps DEL476-501): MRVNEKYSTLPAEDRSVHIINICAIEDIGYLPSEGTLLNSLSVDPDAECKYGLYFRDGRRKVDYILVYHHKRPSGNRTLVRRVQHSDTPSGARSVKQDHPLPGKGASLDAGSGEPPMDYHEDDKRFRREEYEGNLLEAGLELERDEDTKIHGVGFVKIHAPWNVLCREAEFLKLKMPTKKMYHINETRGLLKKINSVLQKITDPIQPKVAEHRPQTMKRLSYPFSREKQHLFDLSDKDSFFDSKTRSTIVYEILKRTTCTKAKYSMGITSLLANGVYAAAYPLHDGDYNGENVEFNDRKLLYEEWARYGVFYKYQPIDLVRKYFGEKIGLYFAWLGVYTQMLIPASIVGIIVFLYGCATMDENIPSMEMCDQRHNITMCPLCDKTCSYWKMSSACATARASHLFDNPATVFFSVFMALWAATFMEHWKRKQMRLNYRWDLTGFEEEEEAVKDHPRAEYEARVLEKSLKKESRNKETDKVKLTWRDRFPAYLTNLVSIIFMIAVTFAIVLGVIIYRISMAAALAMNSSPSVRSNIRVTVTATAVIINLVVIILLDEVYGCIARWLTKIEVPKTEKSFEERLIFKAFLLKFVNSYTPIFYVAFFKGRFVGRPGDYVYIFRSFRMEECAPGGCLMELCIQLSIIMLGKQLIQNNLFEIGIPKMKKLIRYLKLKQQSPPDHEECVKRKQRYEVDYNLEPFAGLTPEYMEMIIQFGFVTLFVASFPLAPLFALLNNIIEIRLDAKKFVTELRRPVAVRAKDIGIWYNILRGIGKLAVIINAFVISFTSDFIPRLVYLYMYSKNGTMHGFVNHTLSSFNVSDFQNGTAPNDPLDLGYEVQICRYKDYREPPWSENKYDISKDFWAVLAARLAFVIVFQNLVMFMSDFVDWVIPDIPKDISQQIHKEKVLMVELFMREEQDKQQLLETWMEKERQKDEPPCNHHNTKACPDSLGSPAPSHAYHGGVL

Turning to `O=C(Cc1cc(Cl)ccc1O)Nc1ccnc(C(=O)NC2(CO)CCOC2)c1` (racemic) [Example 35, 4-[[2-(5-Chloro-2-hydroxy-phenyl)acetyl]amino]-N-[3-(hydroxymethyl)tetrahydrofuran-3-yl]pyridine-2-carboxamide], the “% Potentiation @ 3.33 μM Avg” value stood at 180% and the EC50 was 0.19 µM.

In the case of `CC(C#N)(CO)NC(=O)c1cc(NC(=O)Cc2cc(Cl)ccc2O)ccn1` (racemic) [Example 46, 4-[[2-(5-Chloro-2-hydroxy-phenyl)acetyl]amino]-N-(1-cyano-2-hydroxy-1-methyl-ethyl)pyridine-2-carboxamide], the “% Potentiation @ 3.33 μM Avg” value stood at 275% and the 50% effective concentration (EC50) is 0.25 µM.

For the compound `CC(C)(C)NC(=O)c1cc(NC(=O)[C@@H]2CCc3ccccc32)ccn1` (single isomer, unassigned) [Example 21a, N-tert-Butyl-4-[[(1R)-indane-1-carbonyl]amino]pyridine-2-carboxamide or N-tert-Butyl-4-[[(1S)-indane-1-carbonyl]amino]pyridine-2-carboxamide], the “% Potentiation @ 3.33 μM Avg” value was determined as 99% and the EC50 was 1.57 µM.

Take `CC(C)(C)NC(=O)c1cc(NC(=O)[C@@H]2CCc3ccccc32)ccn1` (single isomer, unassigned) [Example 21b, N-tert-Butyl-4-[[(1R)-indane-1-carbonyl]amino]pyridine-2-carboxamide or N-tert-Butyl-4-[[(1S)-indane-1-carbonyl]amino]pyridine-2-carboxamide]: the “% Potentiation @ 3.33 μM Avg” value worked out at 164% and the concentration giving a half-maximal response (EC50) was 1.08 µM.

Take `O=C(Cc1cc(Cl)ccc1O)Nc1ccnc(C(=O)N[C@H]2CCCC[C@@H]2O)c1` (single isomer, unassigned) [Example 31.3a, 4-[[2-(5-Chloro-2-hydroxy-phenyl)acetyl]amino]-N-[(1S,2S)-2-hydroxycyclohexyl]pyridine-2-carboxamide or 4-[[2-(5-Chloro-2-hydroxy-phenyl)acetyl]amino]-N-[(1R,2R)-2-hydroxycyclohexyl]pyridine-2-carboxamide]: the “% Potentiation @ 3.33 μM Avg” value was found to be 238% and the EC50 was 0.55 µM.

On to `O=C(Cc1cc(Cl)ccc1O)Nc1ccnc(C(=O)N[C@@]2(CO)CCOC2)c1` (single isomer, unassigned) [Example 35a, 4-[[2-(5-Chloro-2-hydroxy-phenyl)acetyl]amino]-N-[(3R)-3-(hydroxymethyl)tetrahydrofuran-3-yl]pyridine-2-carboxamide or 4-[[2-(5-chloro-2-hydroxy-phenyl)acetyl]amino]-N-[(3S)-3-(hydroxymethyl)tetrahydrofuran-3-yl]pyridine-2-carboxamide], for which the “% Potentiation @ 3.33 μM Avg” value is given as 137% and the EC50 is 0.1 µM.

As for `O=C(Cc1cc(Cl)ccc1O)Nc1ccnc(C(=O)N[C@@]2(CO)CCOC2)c1` (single isomer, unassigned) [Example 35b, 4-[[2-(5-Chloro-2-hydroxy-phenyl)acetyl]amino]-N-[(3R)-3-(hydroxymethyl)tetrahydrofuran-3-yl]pyridine-2-carboxamide or 4-[[2-(5-chloro-2-hydroxy-phenyl)acetyl]amino]-N-[(3S)-3-(hydroxymethyl)tetrahydrofuran-3-yl]pyridine-2-carboxamide], the “% Potentiation @ 3.33 μM Avg” value was 190% and the EC50 was 0.31 µM.

On to `C[C@](C#N)(CO)NC(=O)c1cc(NC(=O)Cc2cc(Cl)ccc2O)ccn1` (single isomer, unassigned) [Example 46a, 4-[[2-(5-Chloro-2-hydroxy-phenyl)acetyl]amino]-N-[(1S)-1-cyano-2-hydroxy-1-methyl-ethyl]pyridine-2-carboxamide or 4-[[2-(5-chloro-2-hydroxy-phenyl)acetyl]amino]-N-[(1R)-1-cyano-2-hydroxy-1-methyl-ethyl]pyridine-2-carboxamide], for which the “% Potentiation @ 3.33 μM Avg” value is recorded as 249% and the EC50 was 0.11 µM.
